Laboratory results as given in patent US20230000842A1, “METHODS OF TREATING CARTILAGE DISORDERS THROUGH INHIBITION OF CLK AND DYRK” (SAMUMED, LLC, priority 2019, published 2023).
pEC50: −log10 of the molar value.

Columns and labels:
CLK2 kinase = CLK2 kinase (Homo sapiens, UniProt P49760); assay: CLK2 kinase activity assay (Z-lyte FRET); format: biochemical; conditions: Z-lyte Ser/Thr 6 peptide, 60 μM ATP, 1 h at room temperature;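 further: FRET read-out as coumarin to fluorescein emission ratio, unphosphorylated peptide as 0% and phosphorylated peptide as 100% controls, duplicate reactions, non-linear regression fit of dose-response curves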
CLK2 kinase, sequence (P49760 whole entry): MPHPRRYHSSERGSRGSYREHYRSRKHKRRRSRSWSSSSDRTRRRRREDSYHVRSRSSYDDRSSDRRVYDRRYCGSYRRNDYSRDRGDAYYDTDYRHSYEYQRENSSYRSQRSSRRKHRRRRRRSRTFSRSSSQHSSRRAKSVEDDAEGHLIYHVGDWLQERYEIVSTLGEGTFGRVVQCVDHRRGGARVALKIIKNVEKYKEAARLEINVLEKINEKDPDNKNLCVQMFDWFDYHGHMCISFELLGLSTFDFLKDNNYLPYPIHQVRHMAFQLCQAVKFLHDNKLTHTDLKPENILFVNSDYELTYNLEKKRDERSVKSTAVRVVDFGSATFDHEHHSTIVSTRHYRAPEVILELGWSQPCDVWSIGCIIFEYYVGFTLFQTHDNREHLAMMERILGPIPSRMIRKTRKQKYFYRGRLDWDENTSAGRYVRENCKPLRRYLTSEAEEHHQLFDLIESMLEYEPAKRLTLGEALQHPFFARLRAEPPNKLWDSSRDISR

CLK3 kinase = CLK3 kinase (Homo sapiens, UniProt P49761); assay: CLK3 kinase activity assay (Z-lyte FRET); format: biochemical; conditions: Z-lyte Ser/Thr 18 peptide, 156 μM ATP, 1 h at room temperature;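 further: kinase activity read as coumarin/fluorescein emission ratio by FRET, unphosphorylated peptide as 0% and phosphorylated peptide as 100% control, values from non-linear regression of dose-response curves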
CLK3 kinase, sequence (P49761 whole entry): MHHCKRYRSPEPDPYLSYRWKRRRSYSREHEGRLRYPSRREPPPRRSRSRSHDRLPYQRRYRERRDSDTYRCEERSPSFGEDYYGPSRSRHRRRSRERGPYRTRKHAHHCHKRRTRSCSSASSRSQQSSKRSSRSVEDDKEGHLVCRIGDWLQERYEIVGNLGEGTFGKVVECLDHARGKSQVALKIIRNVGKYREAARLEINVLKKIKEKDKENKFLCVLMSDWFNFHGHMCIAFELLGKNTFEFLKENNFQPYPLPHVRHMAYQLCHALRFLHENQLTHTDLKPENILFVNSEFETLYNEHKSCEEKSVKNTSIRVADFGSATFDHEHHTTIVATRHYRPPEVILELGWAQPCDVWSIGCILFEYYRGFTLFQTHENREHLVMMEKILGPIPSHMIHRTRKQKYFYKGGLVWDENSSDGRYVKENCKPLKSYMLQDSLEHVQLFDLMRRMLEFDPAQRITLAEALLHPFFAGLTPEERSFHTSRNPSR

[1] = system: primary human mesenchymal stem cells (hMSCs); assay: Chondrogenesis screening using primary human mesenchymal stem cells; format: cell-based; conditions: Homo sapiens, Mesenchymal stem cells, hMSC chondrogenesis; for Emax: maximum activity relative to TGF-β3 (10 ng/mL) positive control, read-out: Max. Activity as % TGF-β3 activity; for EC50: concentration required to induce 50% levels of chondrogenesis with TGF-β3 as positive control, read-out: Conc (nM) of 50% TGF-β3 activity
How it was run: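 Primary hMSCs at passage 3–6 were treated across compound concentrations, with TGF-β3 as positive control. Chondrogenic nodule area per well was normalized to 3 DMSO wells on the same plate (fold over DMSO, 2–3 replicates). EC50, maximum activity and the dose reaching it were derived.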

[2] = system: Wnt pathway activity (SW480 colon carcinoma cells stably expressing the Sp5-Luc reporter); assay: Wnt pathway activity screening assay (Sp5-Luc reporter gene assay); conditions: Homo sapiens, SW480, Table 4; SW480 cells stably expressing Sp5-Luc reporter, 10-point dose-response from 10 μM, 36 to 48 hours

| Compound | pEC50 (CLK2 kinase) | pEC50 (CLK3 kinase) | pEC50 [2] | EC50 [1] | Emax [1] |
| --- | --- | --- | --- | --- | --- |
| O=C(Nc1cncc(-c2ccc3[nH]nc(-c4cc5cnccc5[nH]4)c3c2)c1)C1CCC1 [compound 428] | 8.70 | 7.72 | 7.12 |  | 213% |
| O=C(Nc1cncc(-c2ccc3[nH]nc(-c4cc5cccnc5[nH]4)c3c2)c1)C1CCCC1 [compound 429] | 8.05 | 6.44 | 6.57 |  | 30.2% |
| O=C(Nc1cncc(-c2ccc3[nH]nc(-c4cc5ccncc5[nH]4)c3n2)c1)C1CCCC1 [compound 430] | 8.15 | 6.83 | 5.58 | 30 nM | 50.3% |
| O=C(Nc1cncc(-c2cnc3[nH]nc(-c4cc5cccnc5[nH]4)c3c2)c1)C1CCCCC1 [compound 432] | 7.77 | 5.53 | 5.90 |  | 28.5% |
| O=C(Cc1ccccc1)Nc1cncc(-c2ccc3[nH]nc(-c4cc5cnccc5[nH]4)c3c2)c1 [compound 434] | 8.30 | 6.72 | 5.76 |  | 119% |
| O=C(Nc1cncc(-c2cnc3[nH]nc(-c4cc5cnccc5[nH]4)c3c2)c1)c1ccccc1 [compound 435] | 8.70 | 7.34 | < 5.00 | 30 nM | 69.9% |
| O=C(Nc1cncc(-c2cc3c(-c4cc5cnccc5[nH]4)n[nH]c3cn2)c1)c1ccccc1 [compound 437] | 8.70 | 7.21 | 6.24 | 10 nM | 152% |
| CCNCc1cncc(-c2ccc3[nH]nc(-c4cc5ccccc5[nH]4)c3c2)c1 [compound 438] | 8.40 | 6.57 | 6.40 | 10 nM | 532% |
| CCNCc1cncc(-c2ccc3[nH]nc(-c4cc5cnccc5[nH]4)c3c2)c1 [compound 439] | 8.70 | 7.31 | 5.99 |  | 317% |
| CCNCc1cncc(-c2ccc3[nH]nc(-c4cc5cccnc5[nH]4)c3n2)c1 [compound 440] | 8.52 | 6.25 | 5.42 | 10 nM | 79.9% |
| CN(C)Cc1cncc(-c2ccc3[nH]nc(-c4cc5cnccc5[nH]4)c3n2)c1 [compound 442] | 8.52 | 7.00 | 5.94 | 30 nM | 119% |
| CN(C)Cc1cncc(-c2ccc3[nH]nc(-c4cc5cccnc5[nH]4)c3n2)c1 [compound 443] | 8.15 | 6.25 | < 5.00 |  | 37% |
| c1ccc2[nH]c(-c3n[nH]c4ncc(-c5cncc(CN6CCCC6)c5)cc34)cc2c1 [compound 444] | 8.05 | 6.44 | 5.85 | 10 nM | 97.6% |
| FC1(F)CCN(Cc2cncc(-c3cc4c(-c5cc6cccnc6[nH]5)n[nH]c4cn3)c2)C1 [compound 445] | 8.30 | 6.69 | 5.87 |  | 45.3% |
| FC1(F)CCN(Cc2cncc(-c3ccc4[nH]nc(-c5cc6cnccc6[nH]5)c4n3)c2)C1 [compound 446] | 9.00 | 7.64 | 7.35 | 300 nM | 134% |
| FC1(F)CCN(Cc2cncc(-c3ccc4[nH]nc(-c5cc6cccnc6[nH]5)c4n3)c2)C1 [compound 447] | 8.70 | 7.43 | 6.98 | 100 nM | 134% |
| c1cc2[nH]c(-c3n[nH]c4ccc(-c5cncc(CN6CCCCC6)c5)cc34)cc2cn1 [compound 448] | 8.52 | 7.55 | 6.16 |  | 122% |
| c1cnc2[nH]c(-c3n[nH]c4ccc(-c5cncc(CN6CCCCC6)c5)cc34)cc2c1 [compound 450] | 8.52 | 7.07 | 5.78 |  | 50.8% |
| c1cc2cc(-c3n[nH]c4ccc(-c5cncc(OCCN6CCCC6)c5)cc34)[nH]c2cn1 [compound 452] | 8.70 | 7.17 | 5.73 |  | 44.6% |
| c1cnc2[nH]c(-c3n[nH]c4ccc(-c5cncc(OCCN6CCCC6)c5)cc34)cc2c1 [compound 453] | 8.70 | 6.61 | 5.48 |  | 42.7% |
| CCCCC(=O)Nc1cncc(-c2ccc3[nH]nc(-c4cc5c(N6CCCCC6)cccc5[nH]4)c3n2)c1 [compound 458] | 7.70 | 5.66 | 6.24 | 100 nM | 68.6% |
| FC1(F)CCN(Cc2cncc(-c3ccc4[nH]nc(-c5cc6c(N7CCCCC7)cccc6[nH]5)c4c3)c2)C1 [compound 467] | 7.92 | 6.55 | 6.12 | 30 nM | 160% |
| FC1(F)CCN(Cc2cncc(-c3ccc4[nH]nc(-c5cc6c(N7CCCCC7)ccnc6[nH]5)c4n3)c2)C1 [compound 468] | 8.30 | 6.78 | 5.28 |  | 37.6% |
| c1cc2[nH]c(-c3n[nH]c4ccc(-c5cncc(CN6CCCCC6)c5)cc34)cc2c(N2CCCCC2)n1 [compound 469] | 8.22 | 6.33 | 5.38 |  | 48.1% |

Continued, in another order:

| pEC50 (CLK2 kinase) | pEC50 (CLK3 kinase) | pEC50 [2] | EC50 [1] | Compound | Emax [1] |
| --- | --- | --- | --- | --- | --- |
| 8.52 | 7.21 | 5.79 | 30 nM | O=C(Nc1cncc(-c2cc3c(-c4cc5cnccc5[nH]4)n[nH]c3cn2)c1)C1CCCCC1 [compound 433] | 59.4% |
| 8.30 | 6.27 | 5.51 | 300 nM | CN(C)c1cncc(-c2cc3c(-c4cc5cnccc5[nH]4)n[nH]c3cn2)c1 [compound 441] | 101% |
| 8.30 | 7.28 | 5.81 |  | c1cc2[nH]c(-c3n[nH]c4ncc(-c5cncc(CN6CCCCC6)c5)cc34)cc2cn1 [compound 451] | 39.7% |
| 8.30 | 6.96 | 6.22 |  | Nc1cncc(-c2ccc3[nH]nc(-c4cc5c(N6CCCCC6)ccnc5[nH]4)c3c2)c1 [compound 455] | 130% |
| 8.70 | 7.03 | 5.53 | 30 nM | Nc1cncc(-c2cc3c(-c4cc5c(N6CCCCC6)cncc5[nH]4)n[nH]c3cn2)c1 [compound 456] | 93.5% |
| 9.00 | 7.28 | 6.35 | 10 nM | CC(=O)Nc1cncc(-c2ccc3[nH]nc(-c4cc5c(N6CCCCC6)nccc5[nH]4)c3c2)c1 [compound 457] | 244% |
| 7.89 | 6.57 | 5.39 | 30 nM | CCCCC(=O)Nc1cncc(-c2ccc3[nH]nc(-c4cc5c(N6CCCCC6)nccc5[nH]4)c3n2)c1 [compound 459] | 54.5% |
| 8.10 | 6.64 | 5.41 |  | O=C(Nc1cncc(-c2cnc3[nH]nc(-c4cc5c(N6CCCCC6)nccc5[nH]4)c3c2)c1)C1CC1 [compound 460] | 42.5% |
| 7.72 | 6.47 | 5.39 |  | O=C(Nc1cncc(-c2cc3c(-c4cc5c(N6CCCCC6)nccc5[nH]4)n[nH]c3cn2)c1)C1CCC1 [compound 461] | 42.4% |
| 7.89 | 5.89 | 5.47 |  | CC(C)Nc1cncc(-c2cnc3[nH]nc(-c4cc5c(N6CCCCC6)nccc5[nH]4)c3c2)c1 [compound 463] | 33.6% |
| 7.89 | 5.44 | 6.24 | 10 nM | CN(C)Cc1cncc(-c2ccc3[nH]nc(-c4cc5c(N6CCCCC6)cccc5[nH]4)c3c2)c1 [compound 464] | 205% |
| 8.70 | 6.53 | 5.33 |  | CN(C)Cc1cncc(-c2ccc3[nH]nc(-c4cc5c(N6CCCCC6)nccc5[nH]4)c3c2)c1 [compound 465] | 220% |
| 8.52 | 7.19 | 5.74 |  | c1ncc(-c2ccc3[nH]nc(-c4cc5c(N6CCCCC6)cncc5[nH]4)c3c2)cc1CN1CCCC1 [compound 466] | 24.7% |
| 8.70 | 7.40 | 5.08 |  | CN1CCN(c2cncc3[nH]c(-c4n[nH]c5ccc(-c6cncc(N)c6)cc45)cc23)CC1 [compound 470] | 50.9% |
| 8.52 | 7.05 | 5.93 |  | CN1CCN(c2ccnc3[nH]c(-c4n[nH]c5ccc(-c6cncc(N)c6)cc45)cc23)CC1 [compound 471] | 50.2% |
| 8.00 | 5.97 | < 5.00 |  | CN1CCN(c2nccc3[nH]c(-c4n[nH]c5cnc(-c6cncc(N)c6)cc45)cc23)CC1 [compound 472] | 49.8% |
| 8.52 | 6.55 | < 5.00 | 30 nM | CCC(=O)Nc1cncc(-c2cc3c(-c4cc5c(N6CCN(C)CC6)nccc5[nH]4)n[nH]c3cn2)c1 [compound 473] | 70% |
